Experiments:
Macrophage [1] = test: Inhibition of TNFalpha expression in LPS-induced macrophages (unknown origin) at 10 uM incubated for 24 hrs by ELISA relative to control; assay type: functional
Macrophage [2] = test: Inhibition of TNFalpha expression in LPS-induced macrophages (unknown origin) incubated for 24 hrs by ELISA; assay type: functional, cell-based

IC50 (Macrophage [2]) | SMILES | inhibition at 10 µM (Macrophage [1])
1.05 µM | O=C(/C=C/c1ccc(O)cc1)OC[C@H]1O[C@@H](Oc2ccc(/C=C/C(=O)OC[C@H]3OC(O)[C@H](O)[C@@H](O)[C@@H]3O)cc2O)[C@H](O)[C@@H](O)[C@@H]1O (some centres undefined) | 98.3%
0.134 µM | C[C@@H]1C[C@H]2[C@@H]3CCC4=CC(=O)C=C[C@]4(C)[C@@]3(F)[C@@H](O)C[C@]2(C)[C@@]1(O)C(=O)CO [DEXAMETHASONE] | 82.5%

Reference: ChEMBL document CHEMBL4396958, “Anti-inflammatory phenylpropanoid glycosides from the fruits of Forsythia suspensa” (Bioorg Med Chem Lett, 2019)
